Measured values published in article PMC10942119, “S-nitrosylation of a receptor-like cytoplasmic kinase regulates plant immunity” (Science Advances, 2024).

Experiments:
BIK1 (MBP-BIK1) [1] = biological target: T1, BIK1 (MBP-BIK1) (Arabidopsis thaliana, UniProt O48814); test: biotin switch; assay type: binding; details: covalent; NO donor, S-nitrosylates cysteine; HEN buffer pH 7.7, 30 min, dark
T1 construct: coding region of BIK1, HisMBP-tagged (pDEST-HisMBP; a 6xHis version from pDEST17 was also made), tag kept, E. coli BL21(DE3)
T1 sequence (O48814 1-395): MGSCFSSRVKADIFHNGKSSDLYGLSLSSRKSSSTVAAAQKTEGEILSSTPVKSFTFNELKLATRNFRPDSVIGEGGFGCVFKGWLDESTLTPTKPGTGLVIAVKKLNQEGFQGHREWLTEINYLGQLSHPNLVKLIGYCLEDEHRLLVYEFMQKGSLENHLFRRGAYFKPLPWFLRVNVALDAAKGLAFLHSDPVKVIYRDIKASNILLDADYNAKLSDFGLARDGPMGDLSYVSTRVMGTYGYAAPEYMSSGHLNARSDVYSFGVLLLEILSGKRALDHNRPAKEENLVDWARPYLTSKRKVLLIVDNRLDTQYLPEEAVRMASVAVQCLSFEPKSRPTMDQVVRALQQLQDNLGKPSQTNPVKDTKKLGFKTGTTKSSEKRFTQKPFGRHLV

BIK1 (MBP-BIK1) [2] = biological target: T1, BIK1 (MBP-BIK1); test: biotin switch (anti-biotin Western blot); in vitro autophosphorylation assay; assay type: biochemical; details: covalent; NO donor, S-nitrosylates cysteine, reversed by DTT; raises autophosphorylation; HEN buffer pH 7.7, 30 min, dark
BIK1 (MBP-BIK1) [3] = biological target: T2, BIK1 (MBP-BIK1) (Arabidopsis thaliana, UniProt O48814, K105E); test: biotin switch; assay type: binding; details: covalent; NO donor (donor not named for this figure; GSNO in the same passage); kinase-dead mutant, GSNO gave no autophosphorylation
T2 construct: coding region of BIK1, HisMBP-tagged (pDEST-HisMBP; a 6xHis version from pDEST17 was also made), tag kept, E. coli BL21(DE3)
T2 sequence (O48814 1-395 K105E): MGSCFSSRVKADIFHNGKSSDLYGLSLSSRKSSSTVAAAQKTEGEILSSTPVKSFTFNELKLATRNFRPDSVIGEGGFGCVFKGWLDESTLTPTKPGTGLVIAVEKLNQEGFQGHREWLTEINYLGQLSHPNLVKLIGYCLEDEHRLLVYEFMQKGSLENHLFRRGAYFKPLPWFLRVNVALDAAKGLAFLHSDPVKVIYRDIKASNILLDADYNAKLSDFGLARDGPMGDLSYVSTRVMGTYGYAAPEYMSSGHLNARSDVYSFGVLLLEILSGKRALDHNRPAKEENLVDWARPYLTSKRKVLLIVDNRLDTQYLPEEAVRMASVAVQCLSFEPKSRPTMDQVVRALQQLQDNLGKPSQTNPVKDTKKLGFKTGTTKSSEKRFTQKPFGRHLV

[4] = biological target: T3, GSNO-pretreated MBP-BIK1 (S-nitrosylated BIK1, BIK1-SNO) (Arabidopsis (Col-0 cDNA), UniProt O48814 1-395, S-nitrosylation by GSNO pre-treatment; the paper assigns S-nitrosylation to Cys80); test: pull-down; GST-RB-N on Glutathione Sepharose 4B incubated with MBP or MBP-BIK1 (untreated or pretreated with 10 uM GSNO or 100 uM DTT); 30 mM Hepes, 100 mM NaCl, 0.2% Triton X-100, pH 7.5; 4°C, 4 hours, dark; anti-MBP immunoblot; details: both partners purified
T3 construct: botrytis-induced kinase 1 (BIK1), Arabidopsis; coding region amplified from Col-0 cDNA; same construct as m1; Same protein as m1 after treatment with the NO donor; which cysteines carried SNO in this sample was not determined in the pull-down itself
T3 sequence (looked up): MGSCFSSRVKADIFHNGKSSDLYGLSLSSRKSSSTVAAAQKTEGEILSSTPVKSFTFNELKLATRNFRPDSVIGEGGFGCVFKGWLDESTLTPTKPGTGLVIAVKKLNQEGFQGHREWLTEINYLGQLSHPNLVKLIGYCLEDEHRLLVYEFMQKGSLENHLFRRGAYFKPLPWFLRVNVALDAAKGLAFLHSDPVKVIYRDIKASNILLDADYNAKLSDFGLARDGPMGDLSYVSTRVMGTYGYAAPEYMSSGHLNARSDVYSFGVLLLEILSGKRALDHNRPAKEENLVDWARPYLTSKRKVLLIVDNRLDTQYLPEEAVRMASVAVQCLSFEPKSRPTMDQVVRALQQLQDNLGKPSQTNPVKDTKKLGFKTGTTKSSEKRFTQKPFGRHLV

[5] = biological target: T4, MBP-BIK1 (recombinant botrytis-induced kinase 1 fused to maltose binding protein) (Arabidopsis (Col-0 cDNA), UniProt O48814 1-395); test: as above; details: both partners purified
T4 construct: botrytis-induced kinase 1 (BIK1), Arabidopsis; coding region amplified from Col-0 cDNA; The text calls the protein in the pull-down pBIK1 as well; a phosphorylation state of the recombinant protein is not defined; also called recombinant BIK1; pDEST-HisMBP-BIK1; source: E. coli BL21(DE3), purified (amylose magnetic beads)
T4 sequence (looked up): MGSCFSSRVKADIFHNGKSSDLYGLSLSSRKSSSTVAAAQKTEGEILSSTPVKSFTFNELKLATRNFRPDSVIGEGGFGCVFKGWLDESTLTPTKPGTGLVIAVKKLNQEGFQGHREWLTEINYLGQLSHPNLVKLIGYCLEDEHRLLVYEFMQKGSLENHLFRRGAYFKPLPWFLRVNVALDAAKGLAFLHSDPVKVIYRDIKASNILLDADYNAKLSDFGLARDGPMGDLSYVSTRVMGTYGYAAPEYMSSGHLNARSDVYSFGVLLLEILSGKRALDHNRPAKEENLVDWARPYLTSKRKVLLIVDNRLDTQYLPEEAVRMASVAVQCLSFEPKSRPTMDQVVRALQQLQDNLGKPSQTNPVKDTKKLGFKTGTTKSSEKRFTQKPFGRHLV

N[C@@H](CSN=O)C(=O)O [Cys-NO]
biotin switch (BIK1 (MBP-BIK1) [1]): The natural NO donor, Cys-NO, also S-nitrosylated BIK1 in vitro

N[C@@H](CCC(=O)N[C@@H](CSN=O)C(=O)NCC(=O)O)C(=O)O [GSNO]
biotin switch (anti-biotin Western blot); in vitro autophosphorylation assay (BIK1 (MBP-BIK1) [2]): BIK1 was S-nitrosylated in a concentration-dependent fashion by GSNO | biotin switch (BIK1 (MBP-BIK1) [3]): NO induced S-nitrosylation of BIK1^K105E (fig. S6F)

B1: GST-RBOHD-N (GST-tagged N terminus of respiratory burst oxidase homolog D) (domain or fragment, Arabidopsis, UniProt Q9FIJ0 1-376, looked up)
chain: MKMRRGNSSNDHELGILRGANSDTNSDTESIASDRGAFSGPLGRPKRASKKNARFADDLPKRSNSVAGGRGDDDEYVEITLDIRDDSVAVHSVQQAAGGGGHLEDPELALLTKKTLESSLNNTTSLSFFRSTSSRIKNASRELRRVFSRRPSPAVRRFDRTSSAAIHALKGLKFIATKTAAWPAVDQRFDKLSADSNGLLLSAKFWECLGMNKESKDFADQLFRALARRNNVSGDAITKEQLRIFWEQISDESFDAKLQVFFDMVDKDEDGRVTEEEVAEIISLSASANKLSNIQKQAKEYAALIMEELDPDNAGFIMIENLEMLLLQAPNQSVRMGDSRILSQMLSQKLRPAKESNPLVRWSEKIKYFILDNWQR
notes: respiratory burst oxidase homolog D (RBOHD), Arabidopsis; 1128 bp make 376 codons; also called GST-RB-N; N-RBOHD; source: E. coli BL21(DE3), purified (Glutathione Sepharose 4B)
binding result [4]: binds | binding result [5]: binds
